Source: patent EP3744729B1, “PEPTIDES, COMPOSITIONS COMPRISING THEM AND COSMETIC AND DERMOPHARMACEUTICAL USES” (SEDERMA, priority 2009, dated 2023)
Where a SMILES comes first, the peptide text is derived from it. [ ]: non-standard residue; d: D form. The star is where a group is joined. Met(O2) = CS(=O)(=O)CC[C@H](N)C(=O)O; Palmitoyl = CCCCCCCCCCCCCCCC(=O)*; Ava = NCCCCC(=O)O

Legend:
[1] = test system: dermal NHF; assay: Immunostaining method on dermal NHF: collagen I (Table 7, Test 2); format: cell-based, human; details: % difference compared to the control
Text: Table 7 showing % differences in collagen I in the dermis compared to the control for dioxygenated peptide compounds according to the immunostaining method or to ELISA test on dermal NHF

[2] = test system: normal human dermal fibroblasts (NHF); assay: ELISA test on normal human dermal fibroblasts (NHF): macromolecules in culture supernatant; format: cell-based; details: % difference compared to the control; for Collagen I in the dermis Test 1: Table 7; for Fibronectin: dermal NHF; for Collagen I in the dermis: 3 days contact
Procedure: > ELISA test on normal human dermal fibroblasts (NHF)
This test examines the dermal molecules.
Normal human dermal fibroblasts are cultured in multi-well plates. The cells either are or are not placed in contact with the test substances for 3 days. The culture supernatants are removed and the quantity of macromolecules present (collagen I, fibronectin, collagen IV and hyaluronic acid) is assayed by ELISA.

SMILES	Collagen I in the dermis Test 2 ([1]; 2 ppm)	Collagen I in the dermis Test 2 ([1]; 4 ppm)	Collagen I in the dermis Test 2 ([1]; 6 ppm)	Collagen I in the dermis Test 1 ([2]; 4 ppm)	Collagen I in the dermis Test 1 ([2]; 6 ppm)	further results
CCCCCCCCCCCCCCCC(=O)NCCCCC(=O)N[C@@H](CCS(C)(=O)=O)C(N)=O [Pal-Ava-MO2-NH2]	+495%	+667%	+557%	–	–	–
CCCCCCCCCCCCCCCC(=O)N[C@@H](CCCCN)C(=O)NCCCCC(=O)N[C@@H](CCCCN)C(=O)O [Pal-K-Ava-K-OH, reference compound]	–	–	–	+116%	+175%	–
CCCCCCCCCCCCCCCC(=O)N[C@@H](CCCCN)C(=O)NCCCCC(=O)N[C@@H](CCS(C)(=O)=O)C(=O)N[C@@H](CCCCN)C(=O)O [Pal-K-Ava-MO2-K-OH] (Palmitoyl-K[Ava][Met(O2)]K-OH)	–	–	–	+167%	–	Collagen I in the dermis Test 1 ([2]; 2 ppm): +63%
CCCCCCCCCCCCCCCC(=O)N[C@@H](CCCCN)C(=O)N[C@@H](Cc1ccccc1)C(=O)N[C@@H](CCS(C)(=O)=O)C(=O)N[C@@H](CCCCN)C(=O)O [Pal-K-F-MO2-K-OH] (Palmitoyl-KF[Met(O2)]K-OH)	–	–	–	+80%	+81%	–
CCCCCCCCCCCCCCCC(=O)N[C@@H](CCCCN)C(=O)N[C@@H](CCS(C)(=O)=O)C(=O)NCCCCC(=O)N[C@@H](CCCCN)C(=O)O [Pal-K-MO2-Ava-K-OH] (Palmitoyl-K[Met(O2)][Ava]K-OH)	–	–	–	–	–	Collagen I in the dermis Test 1 ([2]; 2 ppm): +75%
CCCCCCCCCCCCCCCC(=O)N[C@@H](CCCCN)C(=O)N[C@@H](CCS(C)(=O)=O)C(=O)N[C@@H](Cc1ccccc1)C(=O)N[C@@H](CCCCN)C(=O)O [Pal-K-MO2-F-K-OH] (Palmitoyl-K[Met(O2)]FK-OH)	–	–	–	+91%	–	–
CCCCCCCCCCCCCCCC(=O)N[C@@H](CCCCN)C(=O)N[C@@H](CCS(C)(=O)=O)C(=O)N[C@H](C(=O)N[C@@H](CCCCN)C(=O)O)[C@@H](C)O [Pal-K-MO2-T-K-OH] (Palmitoyl-K[Met(O2)]TK-OH)	–	+192%	+217%	+45%	+194%	–
CCCCCCCCCCCCCCCC(=O)N[C@@H](CCCCN)C(=O)N[C@H](C(=O)N[C@@H](Cc1ccccc1)C(=O)N[C@@H](CCCCN)C(=O)O)[C@@H](C)O [Pal-K-T-F-K-OH, reference compound] (Palmitoyl-KTFK-OH)	–	–	–	+82%	+103%	–
CCCCCCCCCCCCCCCC(=O)N[C@@H](CCCCN)C(=O)N[C@H](C(=O)N[C@@H](Cc1ccccc1)C(=O)N[C@@H](CCS(C)(=O)=O)C(N)=O)[C@@H](C)O [Pal-K-T-F-MO2-NH2] (Palmitoyl-KTF[Met(O2)]-NH2)	+267%	+420%	+400%	+106%	+121%	–
CCCCCCCCCCCCCCCC(=O)N[C@@H](CCCCN)C(=O)N[C@H](C(=O)N[C@@H](CCS(C)(=O)=O)C(=O)N[C@@H](CCCCN)C(=O)O)[C@@H](C)O [Pal-K-T-MO2-K-OH] (Palmitoyl-KT[Met(O2)]K-OH)	+273%	+341%	+262%	+75%	+161%	–
CCCCCCCCCCCCCCCC(=O)N[C@@H](CCCCN)C(=O)N[C@@H](C)C(=O)N[C@@H](CCCCN)C(=O)O [Pal-KAK-OH, reference compound] (Palmitoyl-Lys-Ala-Lys-OH)	–	–	–	–	–	Coll. I ([2]; 4 ppm peptide): +42%; Coll. IV ([2]; 4 ppm peptide): -6%; Fibronectin ([2]; 4 ppm peptide): +33%
CCCCCCCCCCCCCCCC(=O)N[C@@H](CCCCN)C(=O)N[C@@H](CS)C(=O)N[C@@H](CCCCN)C(=O)O [Pal-KCK-OH] (Palmitoyl-Lys-Cys-Lys-OH)	–	–	–	–	–	Coll. I ([2]; 4 ppm peptide): +145%; Coll. IV ([2]; 4 ppm peptide): -1%; Collagen I in the dermis ([2]; 4 ppm peptide): +145%; Coll. I ([2]; 6 ppm peptide): +133%; Coll. IV ([2]; 6 ppm peptide): +23%; Collagen I in the dermis ([2]; 6 ppm peptide): +133%; Fibronectin ([2]; 4 ppm peptide): +57%; Fibronectin ([2]; 6 ppm peptide): +70%
CCCCCCCCCCCCCCCC(=O)N[C@@H](CCCCN)C(=O)N[C@@H](CCSC)C(=O)N[C@@H](CCCCN)C(=O)O [Pal-KMK-OH] (Palmitoyl-Lys-Met-Lys-OH)	–	–	–	+21%	+63%	Collagen I in the dermis ([2]; 4 ppm peptide): +21%; Collagen I in the dermis ([2]; 8 ppm peptide): +64%
CCCCCCCCCCCCCCCC(=O)N[C@@H](CCCCN)C(=O)N[C@@H](CC(N)=O)C(=O)N[C@@H](CCCCN)C(=O)O [Pal-KNK-OH] (Palmitoyl-Lys-Asn-Lys-OH)	–	–	–	–	–	Collagen I in the dermis ([2]; 5 ppm peptide): +55%
CCCCCCCCCCCCCCCC(=O)N[C@@H](CCCCN)C(=O)N[C@@H](CCC(N)=O)C(=O)N[C@@H](CCCCN)C(=O)O [Pal-KQK-OH]	–	–	–	–	–	Coll. I ([2]; 5 ppm peptide): +82%; Fibronectin ([2]; 5 ppm peptide): +35%
CCCCCCCCCCCCCCCC(=O)N[C@@H](CCCCN)C(=O)N[C@@H](CO)C(=O)N[C@@H](CCCCN)C(=O)O [Pal-KSK-OH, reference compound] (Palmitoyl-Lys-Ser-Lys-OH)	–	–	–	–	–	Coll. I ([2]; 4 ppm peptide): +46%; Coll. IV ([2]; 4 ppm peptide): +1%; Fibronectin ([2]; 4 ppm peptide): +26%
CCCCCCCCCCCCCCCC(=O)N[C@@H](CCS(C)(=O)=O)C(=O)NCCCCC(N)=O [Pal-MO2-Ava-NH2]	+375%	+582%	+461%	–	–	–
CCCCCCCCCCCCCCCC(=O)N[C@@H](CCS(C)(=O)=O)C(=O)N[C@@H](CCCCN)C(=O)O [Pal-MO2-K-OH] (Palmitoyl-[Met(O2)]-Lys-OH)	+270%	+457%	+226%	–	–	–
CCCCCCCCCCCCCCCC(=O)N[C@@H](CCS(C)(=O)=O)C(=O)N[C@H](C(=O)N[C@@H](Cc1ccccc1)C(=O)N[C@@H](CCCCN)C(=O)O)[C@@H](C)O [Pal-MO2-T-F-K-OH] (Palmitoyl-[Met(O2)]TFK-OH)	+218%	+456%	+520%	+111%	+148%	–
